Measurements reported in paper PMC6423129, “Activity and structural analysis of GRL-117C: a novel small molecule CCR5 inhibitor active against R5-tropic HIV-1s” (Scientific Reports, 2019).
Marks after values point to notes of the source that are not given here.

Key:
R5-HIV-1Ba-L = experiment: MAGI assay using MAGI/CCR5 cells and R5-HIV-1Ba-L; format: cell-based; conditions: Ba-L (MAGI)
Protocol: (§1) MAGI-CCR5 cells[18] were maintained in DMEM supplemented with 10% fetal calf serum (FCS: Gemini Bio-Products, West Sacramento, CA), 200 μg/ml G418, 100 μg/ml hygromycin B, and 100 μg/ml zeomycin. The Chinese hamster ovary (CHO) cells expressing CCR5[19] were maintained in Ham’s F-12 medium (GIBCO-BRL, Rockville, MD) supplemented with 10% FCS, 50 U/ml penicillin, and 50 μg/ml streptomycin in the presence of 5 μg/ml blasticidin S hydrochloride. TZM-bl cells were obtained from the NIH AIDS Reagent Program, and were cultured in DMEM with 10% FCS. Peripheral blood mononuclear cells (PBMCs) were isolated from buffy coats of HIV-1 seronegative individuals, and were activated with 10 μg/ml phytohemagglutinin (PHA) prior to use[16]. A laboratory wild-type R5-HIV-1 strain (HIV-1Ba-L)[37] was employed for drug susceptibility assays. AD101 (experimental CCR5 inhibitor) and VVC-resistant HIV clones[7],[8] were provided by Dr. John P. Moore of Cornell University for this study. The clones were propagated with activated PBMCs, and were used for the assays. A clinical HIV-1 strain, HIV-1KP-5pc, and an MVC-resistant isolate, HIV-1KP-5mvcR, were prepared and used for antiviral assays, as previously described[10],[38]. The following reagents (plasmids) for T/F HIV-1 viruses[22],[24] were obtained through the NIH AIDS Reagent Program, Division of AIDS, NIAID, NIH: pCH040.c/2625 (cat# 11740), pCH106.c/2633 (cat# 11743), pTHRO.c/2626 (cat# 11745), and pCH058.c/2960 (cat# 11856), from Dr. John Kappes and Dr. Christina Ochsenbauer.
(§2) Antiviral assays using PHA-PBMCs (p24 assay) were conducted as previously reported[16],[38]. In brief, PHA-PBMCs (1 × 10^6/ml) were exposed to 50 TCID50 of HIV-1Ba-L or drug-resistant HIV-1 infectious clones in the presence or absence of various concentrations of drugs; 10-fold serial dilutions were performed in 96-well microculture plates. The amount of p24 antigens produced by the cells was determined on day 7 in the culture via a commercially available ELISA kit (PerkinElmer). The p24 production level in drug-free control cell cultures was used as the reference. […] Antiviral assays using MAGI-CCR5 cells (MAGI assay) were conducted as previously reported[16],[39]. Single-round virus infection assays using TZM-bl cells infected with R5-HIV-1s (HIV-1YU2, HIV-1KP-5pc, and HIV-1KP-5mvcR)[10] were also conducted as previously described.

R5-HIV-1BaL = experiment: p24 assay using PBMCs and R5-HIV-1BaL; format: cell-based; conditions: Ba-L (PBMCs), day 7
Protocol: as §1, §2

CC1/85 cl.6 = experiment: Anti-HIV-1 assay, drug-naive clinical strain CC1/85 cl.6; format: cell-based; conditions: CC1/85 cl.6, drug naive R5-HIV-1 clinical strain; read-out: IC50
Protocol: as §1, §2

CC1/85 cl.7 = experiment: Anti-HIV-1 assay, drug-naive clinical strain CC1/85 cl.7; format: cell-based; conditions: CC1/85 cl.7, drug naive R5-HIV-1 clinical strain
Protocol: as §1, §2

[1] = system: CC101.19 cl.7 (AD101 resistant); experiment: microbe, parasite or virus in culture; format: cell-based, HIV-1
Protocol: as §1, §2

[2] = system: D1/85.16 cl.23 (VVC resistant); experiment: microbe, parasite or virus in culture; format: cell-based, HIV-1
Protocol: as §1, §2

pCH040.c/2625 = experiment: MAGI assay, T/F HIV-1 clone pCH040.c/2625; format: cell-based; conditions: T/F clone pCH040.c/2625, MAGI assay, mean ± SD; read-out: IC50
Text: (§3) We also examined the activity of GRL-compounds against Transmitter/founder (T/F) HIV-1 viruses. T/F viruses are involved in the initial infection. It is considered that T/F viruses virtually always use CCR5 rather than CXCR4 and infect T cells but not macrophages because […] of CD4 is needed to mediate virus entry for the initial transmission[20]–[24]. […] We obtained four HIV-1 T/F infectious clones. We determined the antiviral activity of GRL-117C, GRL-10007C and GRL-10018C on these HIV-1 clones using MAGI assay.
as §1, with “A clinical HIV-1 strain, HIV-1KP-5pc, and an MVC-resistant isolate, HIV-1KP-5mvcR, were prepared and used for antiviral assays, as previously described[10],[38].” left out
as §2

pCH0.6.c/2633 = experiment: MAGI assay, T/F HIV-1 clone pCH0.6.c/2633; format: cell-based; conditions: T/F clone pCH0.6.c/2633, MAGI assay, mean ± SD; read-out: IC50
Text: as §3
as §1, with “A clinical HIV-1 strain, HIV-1KP-5pc, and an MVC-resistant isolate, HIV-1KP-5mvcR, were prepared and used for antiviral assays, as previously described[10],[38].” left out
as §2

pTHRO.c/2626 = experiment: MAGI assay, T/F HIV-1 clone pTHRO.c/2626; format: cell-based; conditions: T/F clone pTHRO.c/2626, MAGI assay, mean ± SD; read-out: IC50
Text: as §3
as §1, with “A clinical HIV-1 strain, HIV-1KP-5pc, and an MVC-resistant isolate, HIV-1KP-5mvcR, were prepared and used for antiviral assays, as previously described[10],[38].” left out
as §2

pCH058.c/2960 = experiment: MAGI assay, T/F HIV-1 clone pCH058.c/2960; format: cell-based; conditions: T/F clone pCH058.c/2960, MAGI assay, mean ± SD; read-out: IC50
Text: as §3
as §1, with “A clinical HIV-1 strain, HIV-1KP-5pc, and an MVC-resistant isolate, HIV-1KP-5mvcR, were prepared and used for antiviral assays, as previously described[10],[38].” left out
as §2

[3] = system: Transmitter/founder (T/F) HIV-1 viruses; experiment: MAGI assay, all four T/F viruses (range); format: cell-based; conditions: four T/F HIV-1 clones, MAGI assay; read-out: IC50 values (range over four T/F viruses)
Text: as §3
MAGI-CCR5 cells[18] were maintained in DMEM supplemented with 10% fetal calf serum (FCS: Gemini Bio-Products, West Sacramento, CA), 200 μg/ml G418, 100 μg/ml hygromycin B, and 100 μg/ml zeomycin. The Chinese hamster ovary (CHO) cells expressing CCR5[19] were maintained in Ham’s F-12 medium (GIBCO-BRL, Rockville, MD) supplemented with 10% FCS, 50 U/ml penicillin, and 50 μg/ml streptomycin in the presence of 5 μg/ml blasticidin S hydrochloride. TZM-bl cells were obtained from the NIH AIDS Reagent Program, and were cultured in DMEM with 10% FCS. […]
Antiviral assays using PHA-PBMCs (p24 assay) were conducted as previously reported[16],[38]. […] The amount of p24 antigens produced by the cells was determined on day 7 in the culture via a commercially available ELISA kit (PerkinElmer). […]

HIV-1YU2 = experiment: TZM-bl single-round infection assay, HIV-1YU2; format: cell-based; conditions: YU2, drug-sensitive, mean ± SD
Protocol: as §1, §2

HIV-1KP-5pc = experiment: TZM-bl single-round infection assay, HIV-1KP-5pc; format: cell-based; conditions: KP-5pc, drug-sensitive clinical strain, TZM-bl assay, mean ± SD
Protocol: as §1, §2

HIV-1KP-5mvcR = experiment: TZM-bl single-round infection assay, MVC-resistant HIV-1KP-5mvcR; format: cell-based; conditions: KP-5mvcR, MVC-resistant, TZM-bl assay, mean ± SD
Protocol: as §1, §2

Maraviroc [MVC] showed an IC50 (R5-HIV-1Ba-L) of 0.7 nM, an IC90 (R5-HIV-1Ba-L) of 6.4 nM and an IC50 (R5-HIV-1BaL) of 4.5 nM. It also gave an IC90 (R5-HIV-1BaL) of 21.6 nM, an IC50 (CC1/85 cl.6) of 1.7 nM and an IC50 (CC1/85 cl.7; read-out: IC50) of 2.5 nM. The IC90 (CC1/85 cl.7; read-out: IC90) was 20.6 nM, the “fold increases of IC50s compared to wild type (CC1/85 cl.7)” value ([1]; CC101.19 cl.7 (AD101 resistant) vs CC1/85 cl.7) was “(×15)^e fold” and the IC50 ([1]; CC101.19 cl.7 (AD101 resistant), read-out: IC50) was 36.9 nM. The IC90 ([1]; CC101.19 cl.7 (AD101 resistant), read-out: IC90) was 486 nM, the “fold increases of IC50s compared to wild type (CC1/85 cl.7)” value ([2]; D1/85.16 cl.23 (VVC resistant) vs CC1/85 cl.7) was “(×11)^e fold” and the IC50 ([2]; D1/85.16 cl.23 (VVC resistant), read-out: IC50) was 26.5 nM. It also gave an IC90 ([2]; D1/85.16 cl.23 (VVC resistant), read-out: IC90) of 376 nM, an IC50 (pCH040.c/2625) of 1.7 ± 0.1 nM and an IC50 (pCH0.6.c/2633) of 2.3 ± 0.3 nM. For the same substance, the IC50 (pTHRO.c/2626) was 2.2 ± 0.8 nM, the IC50 (pCH058.c/2960) was 1.9 ± 0.1 nM and the IC50 [3] was 1.7 to 2.3 nM. It also gave an IC50 (HIV-1YU2) of 3.5 ± 2.5 nM, an IC90 (HIV-1YU2) of 15 nM and an IC50 (HIV-1KP-5pc; read-out: IC50) of 8.5 ± 3.6 nM. It also gave an IC90 (HIV-1KP-5pc; read-out: IC90 (converted)) of 81 nM, an IC50 (HIV-1KP-5mvcR; read-out: IC50) of 36 ± 28 nM and an IC90 (HIV-1KP-5mvcR; read-out: IC90 (converted)) of 236 nM.
